Results reported in PMC6306373, “The development of a GPR44 targeting radioligand [^11C]AZ12204657 for in vivo assessment of beta cell mass” (EJNMMI Research, 2018).

Target: T1, GPR44 (prostaglandin D2 receptor 2, DP2, CRTh2) (Homo sapiens, UniProt Q9Y5Y4)
T1 construct: gene PTGDR2; human recombinant GPR44 co-expressed with Gα16 in HEK293 cell membranes
T1 sequence (Q9Y5Y4 1-395): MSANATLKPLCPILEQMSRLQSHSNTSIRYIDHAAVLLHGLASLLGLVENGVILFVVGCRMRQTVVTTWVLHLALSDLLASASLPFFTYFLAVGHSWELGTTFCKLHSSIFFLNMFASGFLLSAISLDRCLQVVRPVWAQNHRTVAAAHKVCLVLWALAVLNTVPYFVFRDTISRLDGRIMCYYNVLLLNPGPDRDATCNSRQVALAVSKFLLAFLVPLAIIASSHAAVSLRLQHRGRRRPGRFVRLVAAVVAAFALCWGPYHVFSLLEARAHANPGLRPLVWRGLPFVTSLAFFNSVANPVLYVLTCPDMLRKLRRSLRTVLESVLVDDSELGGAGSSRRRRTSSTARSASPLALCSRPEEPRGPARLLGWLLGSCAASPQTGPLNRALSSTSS
Test: [3H]PGD2 displacement SPA on HEK293 membranes; also displacement of [[…]-3H-phenoxy]-AZ12204657 by filtration (IC50 […])
Type: binding

C[C@H](Oc1ccc(Cl)cc1Oc1ccc(S(C)(=O)=O)cc1Cl)C(=O)O [AZ12204657, (S)-2-(4-chloro-2-[2-chloro-4-(methylsulfonyl)phenoxy]phenoxy) propanoic acid] was tested, and the IC50 was 2.5 nM.
